Laboratory results published in US7645762B2, “Substituted pyrazolo[1,5-a] pyrimidines as protein kinase inhibitors” (Schering Corporation, priority 2005, dated 2010).
pIC50: −log10 of the molar value.

Target: T1, CDK2 (Homo sapiens, UniProt P24941)
T1 construct: The expressed protein was approximately 34 kDa in size; made in house; host or cells: SF9 insect cells (baculovirus, pFASTBAC)
Experiment: CDK2 in vitro kinase assay (SPA, 33P-ATP, biotinylated Histone H1 peptide)
Format: biochemical
Conditions: recombinant cyclin A or E-dependent CDK2 from baculovirus/SF9 cells; 1 hour at room temperature; 8 point dilutions in duplicate

Structure (SMILES)	pIC50
Nc1cc2nc(-c3ccccc3)cc(N)n2n1	7.10
Nc1nn2c(N)cc(-c3ccccc3)nc2c1Br	5.33
